Source: patent publication US12139526B2, “Modified chimeric receptors and related compositions and methods” (Juno Therapeutics, Inc., priority 2015, dated 2024)

B1: K28L: variant anti-CD19 CAR / junction region with K28L, numbering SEQ ID NO:5 (protein)
chain: FWVLVVVGGVLACYSLLVTVAFIIFWVLRGRKKLLYIFKQPFMRPVQTTQEEDGCSCRFPEEEEGGCEL
modifications: CD28-4-1BB

Columns and labels:
Test in all cases: REVEAL Epitope Discovery System in vitro MHC-peptide binding score
HLA-A*02:01 = HLA-A*02:01 (Homo sapiens, UniProt P04439, D140Y/D185E/D98H/E176V/E277Q/G131W/G231S/I119V/I121R/I166T/I218V/L300P/L318F/N151K/N90K/P208A/P217A/Q86G/Q94H/R138H/R169H/T345S); conditions: for A*02:01 In Vitro Score: REVEAL score, positive control peptide set at 100%, greater than 50 = good or high affinity binding
Procedure: (§1) Actual binding affinities for certain HLA class I alleles (A*02:01, A*03:01. A*11:01, and B*08:01) were assessed in vitro for exemplary overlapping 9 amino acid peptide sequences within a portion of the 26 amino acid junction region spanning the CD28 and 4-1BB junction. Specifically, assessment was of a series of overlapping 9-mer peptides derived from the sequence […] (set forth in SEQ ID NO: 7), which contains a portion of the CD28 transmembrane domain and 4-1BB costimulatory domain spanning the junction between the domains (bond joining the two amino acids noted in underline). In addition, a series of overlapping 9-mer peptides of each of a number of different variants of this portion also were assessed, each variant containing a mutation or mutations in this region as described in Example 2.
(§2) The various 9-mer overlapping peptides were synthesized and their purity tested by MALDI-TOF Mass Spectrometry. The synthetic peptides were then incubated with recombinant MHC molecules to assess binding properties using the REVEAL Epitope Discovery System, which is a high-throughput binding assay that measures the degree to which each peptide is able to stabilize a ternary MHC-peptide complex (ProImmune, Oxford, United Kingdom). Each peptide was separately tested for this ability with respect to each of the HLA class I alleles, normalized to the degree observed for a positive control (known T cell epitope for the relevant allele). The results are reported as a score, in which the binding was normalized to the positive control peptide set at 100%.

HLA-A*03:01 = HLA-A*03:01 (Homo sapiens, UniProt P04439); conditions: positive control peptide set at 100%, greater than 50 = good or high affinity binding
Procedure: as §1, §2

HLA-A*11:01 = HLA-A*11:01 (Homo sapiens, UniProt P04439, A114D/D185E/E176A/F33Y/L180Q/S129P/T187R); design: key: % binding, normalized to positive control peptide set at 100%; conditions: binding normalized to positive control peptide set at 100%, greater than 50 considered good or high affinity binding
Procedure: as §1, §2

HLA-B*08:01 = HLA-B*08:01 (Homo sapiens, UniProt P01889, A93T/A95T/D138N/E176V/E187T/K202T/Q94N/R180D/S35A/V36M/Y33D/Y91F); design: key: % binding, normalized to positive control peptide set at 100%; conditions: binding normalized to positive control peptide set at 100%, greater than 50 considered good or high affinity binding
Procedure: as §1, §2

Molecule	A*02:01 In Vitro Score (HLA-A*02:01)	A*03:01 In Vitro (HLA-A*03:01)	A*11:01 In Vitro Score (HLA-A*11:01)	B*08:01 In Vitro Score (HLA-B*08:01)	predicted or actual binding affinity or score for HLA class I (HLA-A*02:01; for at least one HLA allele (A*02:01, A*03:01, A*11:01, B*08:01) and/or at least one peptide, in silico or in vitro)
IIFWVKRGN [9-mer variant junction peptide, R31N]	9.30	4.30	42.10	0.90	
IIFWVLRGR [9-mer variant junction peptide, K28L]	8.40	2.80	35.20	0.40	
WVQRGRKKL [9-mer variant junction peptide, K28Q]	8.10	4.90	12.80	45.10	
AFIIFWVHR [9-mer variant junction peptide, K28H]	0.30	0.30	34.90	0.30	
IFWVQRGAK [9-mer variant junction peptide, K28Q/R31A]	11.70	17.00	61.30	0.20	
FWVKRGNKK [9-mer variant junction peptide, R31N]	8.70				
WVKRGNKKL [9-mer variant junction peptide, R31N]	2.40	0.90	4.10	65.90	
FWVKRGLKK [9-mer variant junction peptide, R31L]	9.40			6.30	
IIFWVQRGR [9-mer variant junction peptide, K28Q]	5.80	18.00	72.80	0.10	
IIFWVSRGR [9-mer variant junction peptide, K28S]	2.60	25.30	68.90	0.00	
WVQRGNKKS [9-mer variant junction peptide, mutation printed K28Q/L34S]			5.00		
VAFIIFWVS [9-mer variant junction peptide, K28S]	70.60	0.70	25.10	0.10	
IFWVSRGRK [9-mer variant junction peptide, K28S]	1.30	39.20	39.20	0.00	
IIFWVKRGA [9-mer variant junction peptide, R31A]	85.90	42.90	22.60	0.90	
WVKRGHKKL [9-mer variant junction peptide, R31H]	3.90	1.40	2.80	47.60	
WVQRGNKKL [9-mer variant junction peptide, K28Q/R31N]	4.30	1.50	10.70	32.00	
AFIIFWVAR [9-mer variant junction peptide, K28A]	2.20	0.50	51.80	0.20	
IIFWVKRGL [9-mer variant junction peptide, R31L]	82.20	15.90	32.40	1.70	
IIFWVARGR [9-mer variant junction peptide, K28A]	9.60	18.60	70.60	0.30	
WVARGRKKL [9-mer variant junction peptide, K28A]	8.80	1.30	13.80	32.40	
IIFWVKRGR [9-mer of CD28/4-1BB junction region, mutation none]	1.70	24.30	54.50	0.00	
IFWVQRGRK [9-mer variant junction peptide, K28Q]	6.10	36.70	128.50	0.00	
IIFWVHRGR [9-mer variant junction peptide, K28H]	4.70	30.10	77.50	0.20	
VAFIIFWVR [9-mer variant junction peptide, K28R]	1.20	0.70	34.60	0.10	
VAFIIFWVK [9-mer of CD28/4-1BB junction region, mutation none]	0.70	1.50	109.20	0.30	
IIFWVQRGA [9-mer variant junction peptide, K28Q/R31A]	95.30	2.70	56.50	0.20	
FWVARGRKK [9-mer variant junction peptide, K28A]			8.90		
B1					reduced predicted or actual binding affinity or score
